In PMC10979003, “Development and crystal structures of a potent second-generation dual degrader of BCL-2 and BCL-xL” (Nature Communications, 2024):

What was measured:
HiBiT-BCL-2 = molecular target: T1, HiBiT-BCL-2 (Homo sapiens, UniProt P10415); test: HiBiT degradation assay, HiBiT knock-in BCL-2 HeLa cells; format: cell-based; details: for Time to degrade 50% of BCL-2: 100 nM compound
T1 construct: endogenous in cells; host or cells: HeLa (ATCC CCL-2), CRISPR-Cas9 HiBiT knock-in clone
Experimental: The Alt-R CRISPR RNA (crRNA):Alt-R trans-activating crRNA (tracrRNA) duplexes for targeting BCL-xL or BCL-2 were prepared by mixing 0.5 nmol crRNA and 0.5 nmol tracrRNA in 25 μL of Nuclease-Free Duplex Buffer (Integrated DNA Technologies, IDT) by incubation at 95 °C for 5 min and cooling to RT. Single-stranded ultramer DNA oligonucleotides (ssODN) (IDT) were used as the homology directed repair (HDR) donor templates. The sequences of gRNAs and ssODN templates are listed in Supplementary Table 2. Ribonucleoprotein (RNP) complexes with recombinant Streptococcus pyogenes Cas9 protein (IDT) and crRNA:tracrRNA duplex were assembled by incubating 100 pmol of Cas9 and 120 pmol of gRNA for 10–20 min at room temperature. HeLa (2 × 10^5) cells were resuspended in 10 μL of Neon^TM transfection system buffer R from the Neon^TM transfection system 10 mL kit (Thermo Fisher), and the RNP complex along with 100 pmol ssODN template were electroporated into HeLa cells with the Neon^TM transfection system (Thermo Fisher). After electroporation, HeLa cells were transferred to a 12-well plate for culturing. Edited pooled cells were analyzed for HiBiT insertion by assaying for luminescence using Nano-Glo® HiBiT lytic detection system (Cat #N3040, Promega) in a Biotek’s Synergy Neo2 multimode plate reader (Biotek) 48–72 h after electroporation and single clones were selected by serial dilution.
HeLa HiBiT-BCL-xL and HeLa HiBiT-BCL-2 cells (2 × 10^4/well in 80 μL DMEM) were seeded into white 96-well tissue culture plates and incubated overnight at 37 °C, 5% CO2. For dose curve testing, the following day, serial diluted compounds were added into the medium and then plates were incubated at 37 °C, 5% CO2, for 6 h. For time course testing, in the following day, compounds with indicated concentrations were added into the medium at different time points. After treatment, the luminescence signals were measured using Nano-Glo® HiBiT lytic detection system (Cat #N3040, Promega) in a Biotek’s Synergy Neo2 multimode plate reader (Biotek).

WT BCL-xL = molecular target: T2, WT BCL-xL (Homo sapiens, UniProt Q07817); test: AlphaScreen displacement binary binding assay, WT BCL-xL; details: for Kd: Supplementary Fig. 11
T2 construct: BCL-xL (aa 2-212) and BCL-2 (aa 1-207) transformed cells were grown in LB broth; SMT3 (N); made in house; host or cells: E. coli BL21 (DE3) codon plus
Experimental: To test the binary/ternary binding affinities of compounds to BCL-2/BCL-xL, AlphaScreen displacement binding assay was performed to test the capabilities of testing compounds to displace a Biotin-tagged Bim (Biotin-[…]) or Bad (Biotin-[…]) from BCL-2 or BCL-xL for BCL-2 and BCL-xL binding affinities, respectively. All reagents were diluted in assay buffer of 25 mM HEPES, pH 7.5, 150 mM NaCl, 0.1% BSA, and 0.005% tween 20 prior incubation. To a 96-well PCR plate (VWR, Cat. No. 82006-636) was added 10 μL Biotin-tagged Bim (15 nM for WT or 50 nM for mutants) or Bad (15 nM for WT or 50 nM for mutants), 10 μL series diluted compounds solution (2 or 3 or 4× dilution), and 10 μL self-made 6×His tagged BCL-2 WT or mutants (25 nM WT or 50 nM mutants) or 10 μL self-made BCL-xL WT and mutants (10 nM WT or 50 nM mutants). After incubating at room temperature for 30 min, 5 µL of 160 μg/mL of anti-6×His acceptor beads (PerkinElmer, Cat. No. AL128M) was added and the mixture was incubated at room temperature for 15 min. 5 µL of 160 μg/mL of streptavidin donor beads (PerkinElmer, 6760002) was then added under subdued light and the mixture was incubated at dark for 30 min before being transferred to two adjacent wells (17 µL each) of 384-well white OptiPlate (PerkinElmer, Cat. No. 6008280). The luminescence signal was detected on a Biotek’s Synergy Neo2 multimode plate reader installed with an AphaScreen filter cube. The Ki values of each compounds were calculated by fitting data into the “Binding-competitive, One site-Fit Ki” function in GraphPad Prism (9.2.0) based on concentrations of Biotin–peptide used and experimentally determined Kd values of each 6×His protein &&&and Biotin–Peptide pair.

T2 sequence (Q07817 2-212): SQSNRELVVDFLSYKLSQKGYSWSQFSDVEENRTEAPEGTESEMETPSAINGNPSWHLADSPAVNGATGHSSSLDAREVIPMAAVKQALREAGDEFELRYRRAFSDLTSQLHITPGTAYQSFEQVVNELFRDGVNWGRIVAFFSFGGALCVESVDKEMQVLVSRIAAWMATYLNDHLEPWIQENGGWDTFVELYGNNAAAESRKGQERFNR
T1 sequence (P10415 whole entry): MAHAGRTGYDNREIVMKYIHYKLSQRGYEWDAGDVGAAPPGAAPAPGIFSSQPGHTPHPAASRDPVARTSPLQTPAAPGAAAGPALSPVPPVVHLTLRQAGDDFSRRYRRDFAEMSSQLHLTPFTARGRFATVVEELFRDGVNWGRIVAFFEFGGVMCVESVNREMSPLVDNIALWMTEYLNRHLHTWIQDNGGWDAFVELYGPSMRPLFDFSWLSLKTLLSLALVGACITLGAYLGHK

Ki (WT BCL-xL; mean ± s.d., n=3) [nM]	Structure (SMILES)	Time to degrade 50% of BCL-2 (HiBiT-BCL-2)	Kd (WT BCL-xL) [nM]	Potency for inducing degradation of BCL-2 (comparison) (HiBiT-BCL-2; 6 h treatment)
21.9 ± 7.3	Cc1ncsc1-c1ccc(C(C)NC(=O)C2CC(O)CN2C(=O)C(NC(=O)CCCCCCC(=O)N2CCN(CC3(C)CCC(c4ccc(Cl)cc4)=C(CN4CCN(c5ccc(C(=O)NS(=O)(=O)c6ccc(NC(CCN7CCOCC7)CSc7ccccc7)c(S(=O)(=O)C(F)(F)F)c6)cc5)CC4)C3)CC2)C(C)(C)C)cc1 (stereo not drawn) [753b]	> 480 min	~28	
	Cc1ncsc1-c1ccc([C@H](C)NC(=O)[C@@H]2C[C@@H](O)CN2C(=O)[C@@H](NC(=O)CN2CCN(CC(=O)N3CCN(C[C@]4(C)CCC(c5ccc(Cl)cc5)=C(CN5CCN(c6ccc(C(=O)NS(=O)(=O)c7ccc(N[C@H](CCN8C[C@@H]9C[C@H]8CO9)CSc8ccccc8)c(S(=O)(=O)C(F)(F)F)c7)cc6)CC5)C4)CC3)CC2)C(C)(C)C)cc1 [WH244]	about 250 min	~6.14	more potent than 753b
